Among the test systems are Cladosporium herbarum; Botrytis cinerea; Alternaria alternata; Escherichia coli JM109; Cupriavidus necator H16.
Assay in all cases: ≥ marks a high value that may be exact or a test limit, other limits are often not marked, values filed in µg/mL are converted to µM
The test system of assay [1] is Escherichia coli ATCC 35218.
Assay [2] concerns Bacillus cereus ATCC 11778.
Assay [3] deals with Pseudomonas aeruginosa ATCC 9027.
The test system of assay [4] is Staphylococcus aureus ATCC 25923.
Assay [5] relates to Pectobacterium carotovorum subsp. carotovorum DSM 30168.
Assay [6] has as its system Pseudomonas corrugata DSM 7228.
Assay [7] deals with Clavibacter michiganensis subsp. michiganensis DSM 46294.
Assay [8] deals with Pseudomonas syringae pv. tomato DC3000.
The subject of assay [9] is Pseudomonas syringae pv. syringae DSM 10604.
For assay [10], the system named is Xanthomonas vesicatoria DSM 50861.
The test system of assay [11] is Pseudomonas putida GPp104.
Assay [12] relates to Escherichia coli BL21(DE3).
Assay [13] deals with Escherichia coli DH5alpha.
For assay [14], the system named is Bacillus subtilis DSM 347.
Assay [15] relates to Franconibacter helveticus DSM 18396.
For assay [16], the system named is Kocuria rhizophila DSM 348.
Assay [17] has as its system Salmonella enterica subsp. enterica serovar Typhimurium ATCC 14028.
Assay [18] relates to Escherichia coli ATCC 11219.
For assay [19], the system named is Pseudomonas aeruginosa ATCC 13388.
Assay [20] deals with Klebsiella pneumoniae ATCC 10031.
In assay [21] the test system is Staphylococcus aureus ATCC 6538.
The subject of assay [22] is Xanthomonas axonopodis pv. glycines ISBF 327.
Assay [23] relates to Escherichia coli ATCC 25922.

SMILES strings stand for the structures. Converted amounts (≈) assume the structure as drawn.

As usually defined, the MIC is the least concentration at which growth counts as inhibited. The low end stands for inhibition by little substance, the high end for a need for much substance.

`CC(C)C[C@H](NC(=O)[C@@H](NC(=O)[C@H](CCCCN)NC(=O)[C@@H](N)CCCCN)C(C)C)C(=O)N[C@@H](CCCCN)C(=O)N[C@@H](C)C(=O)N[C@@H](C)C(=O)N[C@@H](C)C(N)=O` [KKVLKAAA]: the minimal inhibitory concentration (MIC) in assay [1] was at least 50 µM; in [2], at least 50 µM; in [3], above 50 µM; in [4] it was above 50 µM.

`CC(C)[C@H](NC(=O)[C@H](C)NC(=O)[C@H](CCCN=C(N)N)NC(=O)[C@H](CCCCN)NC(=O)[C@H](C)NC(=O)[C@H](Cc1ccccc1)NC(=O)[C@H](CCCN=C(N)N)NC(=O)[C@H](C)NC(=O)[C@H](Cc1ccccc1)NC(=O)[C@H](CCCN=C(N)N)NC(=O)[C@H](CCCCN)NC(=O)[C@@H](N)CCCN=C(N)N)C(N)=O` [RKRFARFAKRAV]: the MIC in assay [5] was 26.6 µM (≈ 40 µg/mL); in assay [6], 26.6 µM (≈ 40 µg/mL); in the assay on Cladosporium herbarum, 26.6 µM (≈ 40 µg/mL); in [7], 13.3 µM (≈ 20 µg/mL); with Botrytis cinerea, at least 66.4 µM; in assay [8], 3.32 µM (≈ 5 µg/mL). Moreover, the MIC in assay [9] is 26.6 µM (≈ 40 µg/mL); against Alternaria alternata, at least 66.4 µM; in assay [10], 26.6 µM (≈ 40 µg/mL).

Regarding `CC[C@H](C)[C@H](NC(=O)[C@H](CC(C)C)NC(=O)[C@H](CCCCN)NC(=O)[C@H](CCCN=C(N)N)NC(=O)[C@@H](N)CCCCN)C(=O)N[C@@H](Cc1ccccc1)C(=O)N[C@@H](CC(C)C)C(=O)N[C@@H](C)C(=O)N[C@@H](C)C(=O)N[C@@H](Cc1ccccc1)C(=O)N[C@@H](CC(C)C)C(=O)N[C@@H](C)C(=O)N[C@@H](C)C(=O)N[C@@H](CC(C)C)C(=O)N[C@@H](C)C(=O)N[C@@H](CC(C)C)C(=O)N[C@@H](Cc1ccccc1)C(=O)N[C@@H](CCCCN)C(=O)N[C@@H](CCCCN)C(=O)N[C@@H](CCCN=C(N)N)C(N)=O` [KRKLIFLAAFLAALALFKKR], the MIC in assay [5] was 17.2 µM (≈ 40 µg/mL); in assay [6] it was 17.2 µM (≈ 40 µg/mL); against Cladosporium herbarum, 17.2 µM (≈ 40 µg/mL); in assay [7] it was 1.08 µM (≈ 2.5 µg/mL); in the assay on Botrytis cinerea it was at least 43.1 µM; in assay [8] it was 17.2 µM (≈ 40 µg/mL). Moreover, the MIC in [9] is 17.2 µM (≈ 40 µg/mL); in the assay on Alternaria alternata it was at least 43.1 µM; in assay [10], 8.62 µM (≈ 20 µg/mL).

As to `CC[C@H](C)[C@H](NC(=O)[C@H](Cc1ccc(O)cc1)NC(=O)[C@@H](NC(=O)[C@@H]1CCCN1C(=O)[C@H](CCCN=C(N)N)NC(=O)[C@@H]1CCCN1C(=O)[C@H](CC(C)C)NC(=O)[C@@H](N)CCCN=C(N)N)C(C)C)C(=O)N1CCC[C@H]1C(=O)N[C@@H](CCC(N)=O)C(=O)N1CCC[C@H]1C(=O)N[C@@H](CCCN=C(N)N)C(=O)N1CCC[C@H]1C(=O)N1CCC[C@H]1C(=O)N[C@@H](Cc1cnc[nH]1)C(=O)N1CCC[C@H]1C(=O)N[C@@H](CCCN=C(N)N)C(=O)N[C@@H](CC(C)C)C(=O)O` [RLPRPVYIPQPRPPHPRL], the MIC in assay [11] was 12.5 µM (≈ 27.4 µg/mL); against Escherichia coli JM109, 25 µM (≈ 54.7 µg/mL); in assay [12] it was 1.25 µM (≈ 2.74 µg/mL); against Cupriavidus necator H16, at least 50 µM.

As to `CC[C@H](C)[C@H](NC(=O)CN)C(=O)NCC(=O)N[C@@H](CCCCN)C(=O)N[C@@H](Cc1ccccc1)C(=O)N[C@@H](CC(C)C)C(=O)N[C@@H](Cc1cnc[nH]1)C(=O)N[C@@H](CO)C(=O)N[C@@H](C)C(=O)N[C@@H](CCCCN)C(=O)N[C@@H](CCCCN)C(=O)N[C@@H](Cc1ccccc1)C(=O)N[C@@H](C)C(=O)N[C@@H](CCCCN)C(=O)N[C@@H](C)C(=O)N[C@@H](Cc1ccccc1)C(=O)N[C@H](C(=O)NCC(=O)N[C@@H](CCC(=O)O)C(=O)N[C@H](C(=O)N[C@@H](CCSC)C(=O)N[C@@H](CC(N)=O)C(=O)N[C@@H](CO)C(=O)O)[C@@H](C)CC)C(C)C` [GIGKFLHSAKKFAKAFVGEIMNS], the minimum inhibitory concentration (MIC) in assay [13] was determined as 16 µM (≈ 39.7 µg/mL); in assay [14], 1 µM (≈ 2.48 µg/mL); in [15], 4 µM (≈ 9.92 µg/mL); in [16], 8 µM (≈ 19.8 µg/mL).

As to `CC[C@H](C)[C@H](NC(=O)CNC(=O)[C@@H](N)Cc1c[nH]c2ccccc12)C(=O)N[C@@H](CCCN=C(N)N)C(=O)N[C@@H](CCCN=C(N)N)C(=O)N[C@H](C(=O)N[C@@H](CC(C)C)C(=O)N[C@@H](CCCCN)C(=O)N[C@@H](Cc1ccc(O)cc1)C(=O)NCC(=O)N[C@@H](CCCCN)C(=O)N[C@@H](CCCN=C(N)N)C(=O)N[C@@H](CO)C(=O)O)[C@@H](C)CC` [WGIRRILKYGKRS], the minimum inhibitory concentration (MIC) amounted to 10 µM (≈ 16.3 µg/mL) in assay [17]; 10 µM (≈ 16.3 µg/mL) in [18]; 4 µM (≈ 6.53 µg/mL) in [19]; 20 µM (≈ 32.7 µg/mL) in [20]; 4 µM (≈ 6.53 µg/mL) in [21].

In the case of `CC(C)C[C@H](NC(=O)[C@H](CCC(N)=O)NC(=O)[C@H](CCCN=C(N)N)NC(=O)[C@H](CC(C)C)NC(=O)[C@H](CC(C)C)NC(=O)[C@@H](NC(=O)[C@H](CC(C)C)NC(=O)[C@@H](NC(=O)[C@H](CCCN=C(N)N)NC(=O)[C@H](CCCN=C(N)N)NC(=O)[C@H](CCCCN)NC(=O)[C@H](C)NC(=O)[C@@H](N)CC(C)C)C(C)C)[C@@H](C)O)C(=O)N[C@@H](CCCN=C(N)N)C(=O)N[C@@H](CCCN=C(N)N)C(=O)N[C@H](C(=O)N[C@@H](CO)C(=O)N1CCC[C@H]1C(=O)N[C@@H](CO)C(=O)N[C@@H](CO)C(N)=O)C(C)C` [LAKRRVLTLLRQLRRVSPSS], the results for the MIC in assay [22] and in [23] were 2 µM (≈ 4.7 µg/mL) and 14 µM (≈ 32.9 µg/mL), respectively.

As to `CC[C@H](C)[C@H](NC(=O)CN)C(=O)N[C@@H](Cc1cnc[nH]1)C(=O)N[C@@H](CC(=O)O)C(=O)N[C@H](C(=O)N[C@@H](C)C(=O)N[C@@H](CCCCN)C(=O)N[C@@H](Cc1ccc(O)cc1)C(=O)NCC(=O)N[C@@H](CCCCN)C(=O)N1CCC[C@H]1C(=O)N[C@@H](CO)C(N)=O)[C@@H](C)CC` [GIHDIAKYGKPS], the minimum inhibitory concentration (MIC) in assay [17] was above 50 µM; in assay [18] it was at least 50 µM; in [19], at least 50 µM; in [20], 20 µM (≈ 25.7 µg/mL); in [21] it was 5 µM (≈ 6.42 µg/mL).

As to `CC[C@H](C)[C@H](NC(=O)CN)C(=O)NCC(=O)N[C@@H](CCCCN)C(=O)N[C@@H](C)C(=O)N[C@@H](CC(C)C)C(=O)N[C@@H](Cc1cnc[nH]1)C(=O)N[C@@H](CO)C(=O)N[C@@H](C)C(=O)N[C@@H](CCCCN)C(=O)N[C@@H](CCCCN)C(=O)N[C@@H](Cc1ccccc1)C(=O)NCC(=O)N[C@@H](CCCCN)C(=O)N[C@@H](C)C(=O)N[C@@H](Cc1ccccc1)C(=O)N[C@H](C(=O)NCC(=O)N[C@@H](CCC(=O)O)C(=O)N[C@H](C(=O)N[C@@H](CCSC)C(=O)N[C@@H](CC(N)=O)C(=O)N[C@@H](CO)C(=O)O)[C@@H](C)CC)C(C)C` [GIGKALHSAKKFGKAFVGEIMNS], the minimal inhibitory concentration (MIC) in assay [13] is at least 128 µM; in assay [14] it was at least 32 µM; in [15], at least 128 µM; in assay [16], at least 256 µM.

In the case of `CC[C@H](C)[C@H](NC(=O)[C@H](C)NC(=O)[C@@H]1CCCN1C(=O)[C@H](CCCN=C(N)N)NC(=O)[C@@H](N)CC(C)C)C(=O)N[C@@H](CC(C)C)C(=O)N[C@H](C(=O)N[C@@H](CCCN=C(N)N)C(=O)N[C@H](C(=O)N[C@@H](CCCCN)C(=O)NCC(=O)N[C@@H](CCCCN)C(=O)NCC(=O)N[C@@H](CC(C)C)C(N)=O)C(C)C)C(C)C` [LRPAILVRVKGKGL], in assay [22], the MIC is at least 42 µM.

The values above are taken from DBAASP.
